For data set [1], the species on record is Homo sapiens. Kind of data set: Selectivity ratio of IC50 for displacement of [3H]prostaglandin E2 from full-length recombinant human EP4 receptor expressed in Chem-1 cell membranes to IC50 for displacement of [3H]PGF2alpha from full-length recombinant human FP receptor expressed in HEK293 cell membranes.
Data set [2] in a line: Lipophilicity, log D of compound at pH 7.5 by HPLC analysis. To be noted: buffer.
For data set [3], the species on record is Homo sapiens. Kind of data set: Selectivity ratio of IC50 for displacement of [3H]prostaglandin E2 from full-length recombinant human EP3 receptor expressed in HEK293 cell membranes to IC50 for displacement of [3H]PGF2alpha from full-length recombinant human FP receptor expressed in HEK293 cell membranes. For orientation: Displacement assays read how much labelled ligand stays bound in the presence of the test substance.

For data set [4], the species on record is Homo sapiens. In words: Selectivity ratio of IC50 for displacement of [3H]prostaglandin E2 from full-length recombinant human EP2 receptor expressed in HEK293 cell membranes to IC50 for displacement of [3H]PGF2alpha from full-length recombinant human FP receptor expressed in HEK293 cell membranes.
Data set [5] has as its target Cytochrome P450 3A4 (Homo sapiens, UniProt P08684). Kind of data set: Inhibition of CYP3A4 in human liver microsomes using midazolam as substrate incubated for 10 mins in presence of NADPH generating system by LC-MS/MS analysis. A general note: Microsomes from liver hold many membrane-bound enzymes, among them those of drug oxidation.
The species named for data set [6] is Homo sapiens. In words: Selectivity ratio of IC50 for displacement of [3H]PGD2 from full-length recombinant human DP1 receptor expressed in Chem-1 cell membranes to IC50 for displacement of [3H]PGF2alpha from full-length recombinant human FP receptor expressed in HEK293 cell membranes.
The species entered for data set [7] is Homo sapiens. Kind of data set: Selectivity ratio of IC50 for displacement of [3H]prostaglandin E2 from full-length recombinant human EP1 receptor expressed in HEK293 cell membranes to IC50 for displacement of [3H]PGF2alpha from full-length recombinant human FP receptor expressed in HEK293 cell membranes.
For data set [8], the species on record is Homo sapiens. In words: Selectivity ratio of IC50 for displacement of [3H]PGD2 from full-length recombinant human IP receptor expressed in HEK293 cell membranes to IC50 for displacement of [3H]PGF2alpha from full-length recombinant human FP receptor expressed in HEK293 cell membranes.
The nature of data set [9]: Clearance in Wistar rat at 0.3 to 1 mg/kg, iv administered as bolus dose or 15 mins infusion by LC-MS/MS analysis. Format: ADME, organism-based. The following applies: in vivo, dose 0.3-1 mg/kg; for clearance: Wistar; for CL: 0.25 h.
Data set [10] concerns the target Prostaglandin F2-alpha receptor (Homo sapiens, UniProt P43088). In words: Antagonist activity at human FPR expressed in human Chem-1 cells assessed as inhibition of PGF2alpha-induced calcium flux preincubated for 10 mins followed by PGF2alpha stimulation and measured for 120 secs by fluo-8 AM dye based fluorescence assay. The format is functional, cell-based. A general note: A change in cytosolic calcium serves as a functional read-out for many receptors and channels.

Each structure is given as a SMILES string. A value given as a limit tells only on which side of the number the result lay.

Prostaglandin F2-alpha receptor, sequence (P43088 whole entry): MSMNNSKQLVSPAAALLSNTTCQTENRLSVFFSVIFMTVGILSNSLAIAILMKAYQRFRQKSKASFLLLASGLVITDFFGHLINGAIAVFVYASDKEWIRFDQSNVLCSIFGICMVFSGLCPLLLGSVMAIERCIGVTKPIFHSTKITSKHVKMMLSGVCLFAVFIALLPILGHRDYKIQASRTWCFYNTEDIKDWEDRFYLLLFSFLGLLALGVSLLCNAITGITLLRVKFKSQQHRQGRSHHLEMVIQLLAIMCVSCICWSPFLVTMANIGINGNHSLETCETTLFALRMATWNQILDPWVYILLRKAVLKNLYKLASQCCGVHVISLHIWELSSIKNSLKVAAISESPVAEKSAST
Cytochrome P450 3A4, sequence (P08684 whole entry): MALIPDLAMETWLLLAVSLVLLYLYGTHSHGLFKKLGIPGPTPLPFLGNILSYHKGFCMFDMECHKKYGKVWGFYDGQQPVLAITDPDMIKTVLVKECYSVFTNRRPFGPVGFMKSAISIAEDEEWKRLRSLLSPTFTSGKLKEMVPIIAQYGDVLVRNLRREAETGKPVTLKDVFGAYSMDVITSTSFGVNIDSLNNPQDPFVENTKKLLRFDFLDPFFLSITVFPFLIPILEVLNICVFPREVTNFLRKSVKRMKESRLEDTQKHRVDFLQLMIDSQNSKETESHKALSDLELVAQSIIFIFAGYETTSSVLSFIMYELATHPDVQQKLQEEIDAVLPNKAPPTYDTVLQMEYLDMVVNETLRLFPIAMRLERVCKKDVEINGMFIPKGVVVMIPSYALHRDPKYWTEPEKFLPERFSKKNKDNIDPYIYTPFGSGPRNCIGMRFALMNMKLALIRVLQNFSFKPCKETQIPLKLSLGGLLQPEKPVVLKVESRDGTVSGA

Usually logD stands for the decadic logarithm of the distribution of all forms, ionised or not, between an organic phase and buffer at a given pH. Lower therefore signals lower lipophilicity. The IC50 is the midpoint of a concentration-inhibition curve. As for `Cc1c(C(=O)Nc2ccc(C(=O)O)cc2F)c2cc(Br)ccc2[n+]([O-])c1-c1ccccc1`, the Ratio IC50 in data set [1] is 53; in data set [3] it was over 91; in [4], over 91; in data set [6] it was over 91; in data set [7], over 91; in data set [8], over 91. This compound registered a logD in data set [2] of 1.4. The IC50 in [5] is over 20 µM.

With `O=C(O)c1ccc(NC(=O)c2c(Cl)c(-c3ccccc3)nc3ccc(Br)cc23)c(F)c1`, the Ratio IC50 in [1] was 14; in [3] it was over 38; in [4], over 38; in data set [6] it was over 38; in data set [7], over 38; in [8], over 38. Further, the logD in [2] was determined as 2.1.

One may read the clearance as the rate of elimination divided by the concentration. In turn, `Cc1c(N2CCCC2)nc2ccc(Br)cc2c1C(=O)NC[C@@H](CCC(=O)O)c1ccccc1Cl` had a clearance in [9] of 20 mL/min/kg. In data set [2], this compound registered a pH-dependent lipophilicity (logD) of 2.3. Also, in [5], the IC50 was over 20 µM.

`Cc1c(-c2ccccc2)nc2ccc(Cl)cc2c1C(=O)Nc1ccc(C(=O)O)cc1F`: in data set [1], the Ratio IC50 is 17. Further, in data set [2], the pH-dependent lipophilicity (logD) is 1.9. Moreover, the IC50 in data set [5] was over 20 µM.

As to `Cc1c(-c2ccccc2)nc2ccc(Br)cc2c1C(=O)N(C)CCc1ccccn1`, in data set [10], the half-inhibitory concentration (IC50) worked out at 15000 nM.

Take `Cc1c(-c2ccccc2)nc2ccc(Br)cc2c1CNc1ccc(C(=O)O)cc1F`: in data set [9], the clearance was 11.7 mL/min/kg. Also, the IC50 in data set [10] was determined as 25 nM.

`O=C(O)c1ccc(NC(=O)c2c(C3CC3)c(-c3ccccc3)nc3ccc(Br)cc23)c(F)c1`: the Ratio IC50 in data set [1] was 8.8. Besides, the log distribution coefficient (logD) in [2] is 2.1.

In turn, `Cc1c(-c2ccccc2)cc2ccc(Br)cc2c1C(=O)Nc1ccc(C(=O)O)cc1F` had a clearance in data set [9] of 10 mL/min/kg. Further, in data set [10], the IC50 was 13 nM.

For `Cc1c(-c2ccccc2)nc2ccc(Br)cc2c1COc1ccc(C(=O)O)cc1F`, the Ratio IC50 in data set [1] amounted to 20. Besides, the clearance in data set [9] was 20 mL/min/kg. In data set [2], this compound showed a logD of 2.2. For the same compound, the IC50 in data set [10] was 250 nM; in data set [5], over 20 µM.

Consider `Cc1c(-c2ccccc2)nc2ccc(Br)cc2c1C(=O)Nc1ccc(C(=O)O)cc1F`, for which the Ratio IC50 in data set [1] is 16; in [3], over 76; in [4] it was over 76; in [6] it was over 76; in data set [7] it was over 76; in [8], over 76.

Turning to `Cc1c(N2CC(F)(F)C2)nc2ccc(Br)cc2c1C(=O)NCC(CCC(=O)O)c1ccccc1Cl` (racemic), the Ratio IC50 in data set [1] was over 220. The compound further registered a logD in data set [2] of 2.6. Also, in data set [5], the IC50 was over 20 µM.

In the case of `COc1ccc(C(CNC(=O)c2c(C)c(-c3ccccc3)nc3ccc(Br)cc23)CC(=O)O)cc1` (racemic), in data set [1], the Ratio IC50 is over 63. The same compound yielded a logD in data set [2] of 1.9. The IC50 in data set [10] was 1100 nM; in data set [5], over 20 µM.

`COc1cccc(C(CNC(=O)c2c(C)c(-c3ccccc3)nc3ccc(Br)cc23)CC(=O)O)c1` (racemic) came in with a logD in [2] of 2. Also, the IC50 in [5] was over 20 µM.

Turning to `Cc1c(-c2ccccc2)nc2ccc(Br)cc2c1C(=O)NC(C)Cc1ccccn1` (racemic), in [10], the IC50 was 500 nM.

In [9], `CCC1CCCN(c2nc3ccc(Br)cc3c(C(=O)NCC(CCC(=O)O)c3ccccc3Cl)c2C)C1` (single isomer, unassigned; 52) [listing 1 of 2 here] yielded a CL of 2.9 L/h/kg. Besides, the logD in [2] is 3.3. The values for the IC50 in data set [10] and in data set [5] were 0.53 nM and 5 µM, respectively.

In the case of `CCC1CCCN(c2nc3ccc(Br)cc3c(C(=O)NCC(CCC(=O)O)c3ccccc3Cl)c2C)C1` (single isomer, unassigned; 52) [listing 2 of 2 here], the Ratio IC50 in data set [1], in data set [3], in data set [4], in [6], in data set [7] and in [8] was over 180 throughout.

For `CCC1CCCN(c2nc3ccc(Br)cc3c(C(=O)NCC(CCC(=O)O)c3ccccc3Cl)c2C)C1` (single isomer, unassigned; 53) [listing 1 of 2 here], the CL in data set [9] was found to be 1.3 L/h/kg. Moreover, in data set [5], the concentration for half-maximal inhibition (IC50) worked out at 10 µM.

In the case of `CCC1CCCN(c2nc3ccc(Br)cc3c(C(=O)NCC(CCC(=O)O)c3ccccc3Cl)c2C)C1` (single isomer, unassigned; 53) [listing 2 of 2 here], the Ratio IC50 in [1], in data set [3], in data set [4], in data set [6], in data set [7] and in data set [8] was over 580 in each case.

Take `CCC1CCCN(c2nc3ccc(Br)cc3c(C(=O)NCC(CCC(=O)O)c3ccccc3Cl)c2C)C1` (single isomer, unassigned; 54) [listing 1 of 2 here]: the IC50 in [5] amounted to 2 µM.

On to `CCC1CCCN(c2nc3ccc(Br)cc3c(C(=O)NCC(CCC(=O)O)c3ccccc3Cl)c2C)C1` (single isomer, unassigned; 54) [listing 2 of 2 here], for which the Ratio IC50 in data set [1], in data set [3], in data set [4], in data set [6], in data set [7] and in [8] was over 180 in each case.

Take `CCC1CCCN(c2nc3ccc(Br)cc3c(C(=O)NCC(CCC(=O)O)c3ccccc3Cl)c2C)C1` (single isomer, unassigned; 55) [listing 1 of 2 here]: the IC50 in data set [10] was determined as 7.6 nM; in data set [5], 5 µM.

On to `CCC1CCCN(c2nc3ccc(Br)cc3c(C(=O)NCC(CCC(=O)O)c3ccccc3Cl)c2C)C1` (single isomer, unassigned; 55) [listing 2 of 2 here], for which the Ratio IC50 in data set [1], in data set [3], in [4], in data set [6], in [7] and in data set [8] was over 300 each time.

Turning to `Cc1c(-c2ccccc2)nc2ccc(Br)cc2c1C(=O)NCC(CCC(=O)O)c1c(F)ccc(F)c1Cl` (single isomer, unassigned; (+)), in data set [2], the logD was 2.2. Further, the IC50 in data set [5] was over 20 µM.

With `Cc1c(-c2ccccc2)nc2ccc(Br)cc2c1C(=O)NCC(CCCC(=O)O)c1ccccc1Cl` (single isomer, unassigned; (+)), the logD in data set [2] was 2.3. Besides, in data set [5], the IC50 amounted to 20 µM.

`COc1ccccc1C(CNC(=O)c1c(C)c(-c2ccccc2)nc2ccc(Br)cc12)CC(=O)O` (single isomer, unassigned; (+)) gave a clearance in data set [9] of 46.7 mL/min/kg. Besides, in data set [2], the logD stood at 2. In addition, in [5], the IC50 is over 20 µM.

`COc1ccccc1C(C)CNC(=O)c1c(C)c(-c2ccccc2)nc2ccc(Br)cc12` (single isomer, unassigned; (+)): in data set [10], the IC50 was 250 nM.

In the case of `Cc1c(N2CCCCCC2)nc2ccc(Br)cc2c1C(=O)NCC(CCC(=O)O)c1ccccc1Cl` (single isomer, unassigned; (+)), the clearance in data set [9] is 21.7 mL/min/kg.

For the compound `Cc1c(-c2ccccc2)nc2ccc(Br)cc2c1C(=O)NCC(CCC(=O)O)c1ccccc1Cl` (single isomer, unassigned; (+)), the Ratio IC50 in [1], in data set [3], in data set [4], in data set [6], in [7] and in data set [8] was over 6300 throughout.

Compound `Cc1c(-c2ccccc2)nc2ccc(Br)cc2c1C(=O)NCC(CCC(=O)O)c1ccccc1Cl` (single isomer, unassigned; (-)) [listing 1 of 2 here] yielded a CL in [9] of 3 L/h/kg.

In data set [9], `Cc1c(-c2ccccc2)nc2ccc(Br)cc2c1C(=O)NCC(CCC(=O)O)c1c(F)ccc(F)c1Cl` (single isomer, unassigned; (-)) gave a clearance of 43.3 mL/min/kg. Moreover, the IC50 in [5] was determined as 5 µM.

In the case of `Cc1c(N2CCCCC2)nc2ccc(Br)cc2c1C(=O)NCC(CCC(=O)O)c1c(F)ccc(F)c1Cl` (single isomer, unassigned; (-)), the clearance in data set [9] is 38.3 mL/min/kg.

As to `Cc1c(N2CCCCC2)nc2ccc(Br)cc2c1C(=O)NCC(CCC(=O)O)c1ccccc1Cl` (single isomer, unassigned; (-)), in data set [9], the CL stood at 1.5 L/h/kg.

For `Cc1c(-c2ccccc2)nc2ccc(Br)cc2c1C(=O)NCC(CCC(=O)O)c1ccccc1Cl` (single isomer, unassigned; (-)) [listing 2 of 2 here], the Ratio IC50 in data set [1], in data set [3], in [4], in data set [6], in data set [7] and in data set [8] was over 8200 throughout.

In [9], `Cc1c(-c2ccccc2)nc2ccc(Br)cc2c1C(=O)NCC(CC(=O)O)c1ccccc1Cl` (stereo in doubt; 34) yielded a CL of 1.1 L/h/kg. Besides, in data set [5], the IC50 turned out to be 13 µM.

Turning to `Cc1c(N2CCCCC2)nc2ccc(Br)cc2c1C(=O)NCC(CCC(=O)O)c1ccccc1Cl` (stereo in doubt; 48), in data set [9], the clearance is 16.7 mL/min/kg.

Values taken from ChEMBL document CHEMBL4665834 (J Med Chem, 2020).
